Reference: ChEMBL document CHEMBL1132633, “Secondary structure peptide mimetics: design, synthesis, and evaluation of beta-strand mimetic thrombin inhibitors” (J Med Chem, 1999)

Tests used:
Prothrombin [1] = biological target: T1, Prothrombin (Homo sapiens, UniProt P00734); assay: Inhibitory concentration against thrombin.
[2] = biological target: T2, Tissue-type plasminogen activator (Homo sapiens, UniProt P00750); assay: Inhibitory concentration against Tissue type plasminogen activator
Serine protease 1 = biological target: T3, Serine protease 1 (Bos taurus, UniProt P00760); assay: Inhibitory concentration against trypsin.
T3 sequence (P00760 whole entry): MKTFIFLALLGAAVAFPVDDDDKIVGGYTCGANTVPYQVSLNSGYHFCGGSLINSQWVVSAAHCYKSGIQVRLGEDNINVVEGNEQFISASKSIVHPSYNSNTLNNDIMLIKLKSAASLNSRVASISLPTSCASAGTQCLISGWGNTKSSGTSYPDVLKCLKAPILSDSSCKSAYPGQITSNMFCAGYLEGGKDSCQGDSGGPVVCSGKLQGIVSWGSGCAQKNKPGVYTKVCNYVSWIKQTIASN

[3] = biological target: Urokinase-type plasminogen activator (Homo sapiens, UniProt P00749); assay: Inhibitory concentration against Urokinase-type plasminogen activator
Prothrombin [4] = biological target: T1, Prothrombin
Description: Inhibitory constant on rate against thrombin.

Plasminogen [5] = biological target: T4, Plasminogen (Rattus norvegicus, UniProt Q01177); assay: Inhibition constant against plasmin
Coagulation factor X [6] = biological target: T5, Coagulation factor X (Homo sapiens, UniProt P00742); assay: Inhibition constant against Coagulation factor Xa
Coagulation factor VII [7] = biological target: T6, Coagulation factor VII (Homo sapiens, UniProt P08709); assay: Inhibition constant against coagulation factor VIIa
T6 sequence (P08709 whole entry): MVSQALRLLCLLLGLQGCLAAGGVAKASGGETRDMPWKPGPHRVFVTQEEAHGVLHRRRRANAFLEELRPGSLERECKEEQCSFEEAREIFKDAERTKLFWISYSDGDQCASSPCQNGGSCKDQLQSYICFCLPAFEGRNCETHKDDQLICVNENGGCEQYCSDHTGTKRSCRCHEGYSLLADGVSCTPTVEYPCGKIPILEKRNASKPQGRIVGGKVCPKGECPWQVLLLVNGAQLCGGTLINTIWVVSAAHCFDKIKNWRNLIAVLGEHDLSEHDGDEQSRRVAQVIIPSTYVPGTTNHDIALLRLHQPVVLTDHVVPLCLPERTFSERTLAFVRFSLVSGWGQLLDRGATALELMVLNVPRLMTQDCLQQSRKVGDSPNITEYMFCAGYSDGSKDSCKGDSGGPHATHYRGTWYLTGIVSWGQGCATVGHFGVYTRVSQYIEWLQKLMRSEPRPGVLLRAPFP

Coagulation factor X [8] = biological target: T5, Coagulation factor X; assay: Inhibitory concentration against Coagulation factor Xa
Coagulation factor VII [9] = biological target: T6, Coagulation factor VII; assay: Inhibitory concentration against coagulation factor VIIa
Plasminogen [10] = biological target: T4, Plasminogen; assay: Inhibitory concentration against plasmin
[11] = biological target: T2, Tissue-type plasminogen activator; assay: Compound was evaluated for the inhibition of Tissue type plasminogen activator (tissue plasminogen activator)

T5 sequence (P00742 41-179 limits assumed): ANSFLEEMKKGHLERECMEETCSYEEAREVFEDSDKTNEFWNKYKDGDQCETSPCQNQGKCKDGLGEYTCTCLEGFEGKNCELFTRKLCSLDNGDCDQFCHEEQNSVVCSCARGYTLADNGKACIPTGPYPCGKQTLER
T5 sequence (P00742 235-488 limits assumed): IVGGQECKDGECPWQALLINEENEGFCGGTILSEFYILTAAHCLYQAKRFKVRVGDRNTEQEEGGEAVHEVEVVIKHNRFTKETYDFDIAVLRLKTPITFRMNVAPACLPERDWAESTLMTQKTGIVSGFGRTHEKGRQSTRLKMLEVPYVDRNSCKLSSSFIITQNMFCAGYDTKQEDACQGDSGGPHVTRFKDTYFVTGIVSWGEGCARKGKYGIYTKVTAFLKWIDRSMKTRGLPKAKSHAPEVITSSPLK
T4 sequence (Q01177 97-581 limits assumed): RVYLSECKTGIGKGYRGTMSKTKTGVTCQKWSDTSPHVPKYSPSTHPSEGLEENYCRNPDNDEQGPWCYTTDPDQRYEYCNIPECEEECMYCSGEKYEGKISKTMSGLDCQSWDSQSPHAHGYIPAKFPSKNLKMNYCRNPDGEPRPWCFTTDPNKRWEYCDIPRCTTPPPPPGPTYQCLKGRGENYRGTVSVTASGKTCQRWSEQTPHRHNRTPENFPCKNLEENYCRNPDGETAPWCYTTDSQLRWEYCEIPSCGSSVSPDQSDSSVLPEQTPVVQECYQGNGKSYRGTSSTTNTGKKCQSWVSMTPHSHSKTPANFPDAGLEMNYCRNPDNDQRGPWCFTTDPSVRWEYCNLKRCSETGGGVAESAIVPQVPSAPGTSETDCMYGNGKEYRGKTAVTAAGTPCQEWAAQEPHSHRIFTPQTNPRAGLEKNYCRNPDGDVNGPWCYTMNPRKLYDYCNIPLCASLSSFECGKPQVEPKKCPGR
T4 sequence (Q01177 582-812 limits assumed): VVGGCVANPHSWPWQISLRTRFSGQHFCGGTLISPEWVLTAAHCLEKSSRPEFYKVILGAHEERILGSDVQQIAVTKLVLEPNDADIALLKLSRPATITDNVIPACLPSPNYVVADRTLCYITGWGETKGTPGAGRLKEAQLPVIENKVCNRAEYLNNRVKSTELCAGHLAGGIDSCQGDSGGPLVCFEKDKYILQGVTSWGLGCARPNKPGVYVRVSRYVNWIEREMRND
T2 sequence (P00750 whole entry): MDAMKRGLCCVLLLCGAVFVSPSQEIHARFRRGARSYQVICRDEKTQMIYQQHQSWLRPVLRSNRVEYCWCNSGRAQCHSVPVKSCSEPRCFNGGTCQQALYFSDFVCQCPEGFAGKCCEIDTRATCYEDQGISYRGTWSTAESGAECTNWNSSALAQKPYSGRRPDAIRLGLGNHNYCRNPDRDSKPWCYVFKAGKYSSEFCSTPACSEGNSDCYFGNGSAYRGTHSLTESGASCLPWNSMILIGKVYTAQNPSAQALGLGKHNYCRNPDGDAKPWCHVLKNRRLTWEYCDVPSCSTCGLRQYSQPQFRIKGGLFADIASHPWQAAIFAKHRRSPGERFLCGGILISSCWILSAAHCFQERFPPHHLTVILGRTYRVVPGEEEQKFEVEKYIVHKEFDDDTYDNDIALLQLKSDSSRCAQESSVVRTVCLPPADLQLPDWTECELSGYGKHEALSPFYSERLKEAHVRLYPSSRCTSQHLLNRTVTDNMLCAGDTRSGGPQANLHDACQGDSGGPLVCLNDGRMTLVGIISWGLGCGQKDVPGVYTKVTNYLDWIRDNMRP

N=C(N)NCCC[C@H](NC(=O)[C@@H]1CCC2CC[C@@](N)(Cc3ccccc3)CN21)C(=O)c1nc2ccccc2s1 (stereo in doubt; form 1) [listing 1 of 2 here]
Ki (Prothrombin [1]): 10 nM

NCCCC[C@H](NC(=O)[C@@H]1CCN2CC[C@@](N)(Cc3ccccc3)CN12)C(=O)C(=O)NCc1ccccc1
Ki (Prothrombin [1]): 2000 nM

N=C(N)NCCC[C@H](NC(=O)[C@@H]1CCN2CC[C@@](N)(Cc3ccccc3)CN12)C(=O)c1nc2ccccc2s1
Ki [2]: 495 nM
Ki (Serine protease 1): 0.64 nM
Ki [3]: 600 nM
k on (Prothrombin [4]): > 1e+07 M⁻¹ s⁻¹
Ki (Plasminogen [5]): 415 nM
Ki (Coagulation factor X [6]): 270 nM
Ki (Coagulation factor VII [7]): 270 nM

N=C(N)NCCC[C@H](NC(=O)[C@@H]1CCC2CC[C@@](N)(Cc3ccccc3)CN21)C(=O)c1nc2ccccc2s1 (stereo in doubt; form 2) [listing 1 of 2 here]
Ki (Prothrombin [1]): 0.85 nM
Ki [2]: 93 nM
Ki (Serine protease 1): 0.23 nM
Ki [3]: 335 nM
Ki (Plasminogen [5]): 251 nM
Ki (Coagulation factor X [6]): 19.3 nM
Ki (Coagulation factor VII [7]): 200 nM

N=C(N)NCCC[C@H](NC(=O)[C@@H]1CCN2CC[C@@](N)(Cc3ccccc3)CN12)C(=O)C(=O)NCc1ccccc1
k on (Prothrombin [4]): 880000 M⁻¹ s⁻¹

NC(N)=NCCC[C@@H](CCl)NC(=O)[C@@H]1CCCN1C(=O)[C@H](N)Cc1ccccc1
IC50 (Coagulation factor X [8]): 165 nM
IC50 (Coagulation factor VII [9]): 200 nM
IC50 (Plasminogen [10]): 699 nM
IC50 (Prothrombin [1]): 1.5 nM
IC50 [11]: 106 nM
IC50 [3]: 508 nM

N=C(N)NCCC[C@H](NC(=O)[C@@H]1CCC2CC[C@@](N)(Cc3ccccc3)CN21)C(=O)c1nc2ccccc2s1 (stereo in doubt; form 1) [listing 2 of 2 here]
k on (Prothrombin [4]): > 1e+07 M⁻¹ s⁻¹

COc1ccc(CCNC(=O)C(=O)[C@H](CCCN=C(N)N)NC(=O)[C@@H]2CCN3CC[C@@](N)(Cc4ccccc4)CN23)cc1
k on (Prothrombin [4]): 250000 M⁻¹ s⁻¹

N=C(N)NCCC[C@H](NC(=O)[C@@H]1CCN2CC[C@@](N)(Cc3ccccc3)CN12)C(=O)C(=O)NCCc1ccc(Cl)cc1
Ki (Prothrombin [1]): 0.31 nM
k on (Prothrombin [4]): 380000 M⁻¹ s⁻¹

N=C(N)NCCC[C@H](NC(=O)[C@@H]1CCC2CC[C@@](N)(Cc3ccccc3)CN21)C(=O)c1nc2ccccc2s1 (stereo in doubt; form 2) [listing 2 of 2 here]
k on (Prothrombin [4]): > 1e+07 M⁻¹ s⁻¹

COc1ccc(CCNC(=O)C(=O)[C@H](CCCNC(=N)N)NC(=O)[C@@H]2CCN3CC[C@@](N)(Cc4ccccc4)CN23)cc1
Ki (Prothrombin [1]): 0.45 nM

N=C(N)NCCC[C@H](NC(=O)[C@@H]1CCN2CC[C@@](N)(Cc3ccccc3)CN12)C(=O)c1nccs1
Ki (Prothrombin [1]): 2.4 nM
k on (Prothrombin [4]): > 1e+07 M⁻¹ s⁻¹

N=C(N)NCCC[C@H](NC(=O)[C@@H]1CCN2CC[C@@](N)(Cc3ccccc3)CN12)C(=O)C(=O)NCCc1ccccc1
Ki (Prothrombin [1]): 0.071 nM
Ki (Serine protease 1): 0.027 nM
k on (Prothrombin [4]): 640000 M⁻¹ s⁻¹

N=C(N)NCCC[C@@H](CCl)NC(=O)[C@@H]1CCN2CC[C@@](N)(Cc3ccccc3)CN12
IC50 (Coagulation factor X [8]): 385 nM
IC50 (Coagulation factor VII [9]): 140 nM
IC50 (Plasminogen [10]): 978 nM
IC50 (Prothrombin [1]): 1.2 nM
IC50 [2]: 632 nM
IC50 [3]: 927 nM
k on (Prothrombin [4]): 2.4e+06 M⁻¹ s⁻¹
